Assay results: ChEMBL document CHEMBL1152426, “Synthetic strategies toward carbocyclic purine-pyrimidine hybrid nucleosides” (Bioorg Med Chem, 2009)
The source made the active and inactive calls. The calls are words filed in the database; no cut-off is given here.

Assays:
[1] = Inhibition of S-adenosylhomocystein hydrolase
[2] = Inhibition of DNA methyltransferase
[3] = Inhibition of S-adenosylhomocystein hydrolase in presence of 10 uM of S-adenosylhomocystein
[4] = Inhibition of S-adenosylhomocystein hydrolase at 45 uM in presence of S-adenosylhomocystein

| Structure (SMILES) | Activity [1] | Activity [2] | Ki [1] [µM] | Activity [3] | Activity [4] |
| --- | --- | --- | --- | --- | --- |
| O=c1[nH]c(=O)n([C@@H]2CC[C@@H](O)[C@H]2O)c2ncsc12 | inactive | inactive |  |  |  |
| O=c1[nH]c(=O)n([C@@H]2CC[C@@H](O)[C@H]2O)c2nc[nH]c12 |  | inactive | 5 | Active | Active |
